This is an account of results in patent US9345742B2, “Aminostatin derivatives for the treatment of arthrosis” (MERCK PATENT GMBH, priority 2011, dated 2016).

Assay [1] addresses cathepsin D isolated from the human liver (Homo sapiens (Human), UniProt P07339). In words: In-vitro fluorescence assay for identification of cathepsin D inhibitors. Type of assay: biochemical. As to conditions: cathepsin D 1.4 nM, pH 5.5; read-out: CatD assay IC50-. The procedure:
In order to identify modulators of cathepsin D activity, a continuous enzymatic test was carried out with a synthetic peptide which carries a fluorescent group (MCA=(7-methoxycoumarin-4-yl)acetyl) which is quenched by energy transfer from a Dpn (2,4 dinitrophenyl) group on the same molecule, in Greiner 384-well nb microtitre plates. Cleavage of the peptidic substrate by cathepsin D causes an increase in the fluorescence intensity. In order to determine the efficacy of substances, the time-dependent increase in the fluorescence intensity in the presence of the substance was compared with the time-dependent increase in fluorescence in the absence of substances. The reference substance used was pepstatin A (Sigma-Aldrich). The substrate used was […](Dnp)d-R—NH2 (Enzo Life Sciences, Lörrach). The enzyme employed was cathepsin D isolated from the human liver (Sigma-Aldrich) in a final concentration of 1.4 nM. The test was carried out in 100 mM sodium acetate buffer, 1.25% (v/v) of DMSO, 0.25% (w/v) of Chaps, pH 5.5. 2 μl of each substance solution with serially diluted substance concentration were added to in each case 4 μl of cathepsin D solution and incubated at room temperature for 10 min. The reaction was started by addition of 2 μl of substrate solution (final concentration 5 μM). After carrying out a starting-point fluorescence measurement (excitation wavelength 340 nm/emission wavelength 450 nm) using an Envision multilabel reader (Perkin Elmer), the reaction was incubated at room temperature for 60 min. The amount of peptide fragment cleaved off during the reaction time was subsequently measured by determination of the increase in the fluorescence intensity at 450 nm (excitation wavelength 340 nm).

The target in the next assay is recombinant human renin (Homo sapiens (Human), UniProt P00797). Nature of the assay: In-vitro fluorescence assay for identification of renin-inhibitory activity. Type of assay: biochemical. As to conditions: recombinant human renin 10 nM, pH 7.2; read-out: Renin selectivity IC50. As to the method: In order to identify modulators of renin activity, a continuous enzymatic test was carried out with a synthetic peptide which carries a fluorescent group Edans (=(5-(aminoethyl)aminonaphthalenesulfonate) which is quenched by energy transfer from a Dabcyl (4′-dimethylaminoazobenzene-4-carboxylate) group on the same molecule, in Greiner 384-well microtitre plates. Cleavage of the peptidic substrate by renin causes an increase in the fluorescence intensity. In order to determine the efficacy of substances, the time-dependent increase in the fluorescence intensity in the presence of the substance was compared with the time-dependent increase in fluorescence in the absence of substances. The reference substance used was renin inhibitor 2 (Z-Arg-Arg-Pro-Phe-His-Sta-Ile-His N-Boc-Lys methyl ester Z) (Sigma-Aldrich). The substrate used was renin FRET substrate I (DABCYL-g-Abu-[…]EDANS) (Anaspec, Fremont Calif.). The enzyme employed was recombinant human renin (Proteos, Kalamazoo, Mich.) in a final concentration of 10 nM. The test was carried out in 50 mM Mops buffer, 1.5% (v/v) of DMSO, 0.1% (w/v) of Igepal®, pH 7.2, 0.5% (w/v) of BSA. 2 μl of each substance solution with serially diluted substance concentration were added to in each case 4 μl of renin solution and incubated at room temperature for 15 min. The reaction was started by addition of 4 μl of substrate solution (final concentration 5 μM). After carrying out a starting-point fluorescence measurement (excitation wavelength 340 nm/emission wavelength 495 nm) using an Envision multilabel reader (Perkin Elmer), the reaction was incubated at 37° C. for 60 min. The amount of peptide fragment cleaved off during the reaction time was subsequently measured by determination of the increase in the fluorescence intensity at 495 nm (excitation wavelength 340 nm).
Chain of recombinant human renin (P00797 67-406): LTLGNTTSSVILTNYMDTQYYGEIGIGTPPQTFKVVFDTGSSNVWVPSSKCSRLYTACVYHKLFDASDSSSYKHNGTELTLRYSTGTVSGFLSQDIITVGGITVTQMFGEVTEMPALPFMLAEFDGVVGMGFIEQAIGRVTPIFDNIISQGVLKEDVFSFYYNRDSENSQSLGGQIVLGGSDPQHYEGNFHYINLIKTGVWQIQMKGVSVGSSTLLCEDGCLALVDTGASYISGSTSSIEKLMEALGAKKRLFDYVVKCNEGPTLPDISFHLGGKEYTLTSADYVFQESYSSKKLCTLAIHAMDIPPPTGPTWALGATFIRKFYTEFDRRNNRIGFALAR

Each structure is given as a SMILES string. pIC50: −log10 of the molar value. Numbered stars: 1 amine (or outer) side, 2 acyl side, 3 side chain; on linkers, the order of the positions; unused ones are H or OH. Square brackets hold non-standard residues; d marks the D form. Peptide text beside a SMILES is read from it. * marks the point of attachment. X1 = N[C@@H](CC(=O)[*:2])[C@H](Cc1ccccc1)N[*:1]; Isovaleryl = CC(C)CC(=O)*; Abu = CC[C@H](N)C(=O)O; Ac3c = NC1(C(=O)O)CC1

Chain of cathepsin D isolated from the human liver (P07339 65-161): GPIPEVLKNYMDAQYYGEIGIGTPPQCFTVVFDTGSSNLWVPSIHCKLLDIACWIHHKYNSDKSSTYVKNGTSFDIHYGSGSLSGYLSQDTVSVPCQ
Chain of cathepsin D isolated from the human liver (P07339 169-412): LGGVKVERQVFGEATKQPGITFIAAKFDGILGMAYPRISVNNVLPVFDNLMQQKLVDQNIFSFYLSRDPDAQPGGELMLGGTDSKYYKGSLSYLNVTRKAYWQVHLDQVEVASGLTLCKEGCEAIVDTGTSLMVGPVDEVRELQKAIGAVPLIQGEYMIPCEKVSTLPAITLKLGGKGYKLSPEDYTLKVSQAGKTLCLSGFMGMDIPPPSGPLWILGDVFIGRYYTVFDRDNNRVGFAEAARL

Take `CC[C@H](C)[C@H](NC(=O)C[C@H](N)[C@H](Cc1ccccc1)NC(=O)[C@@H](NC(=O)Cc1cccc(OC(F)(F)F)c1)C(C)C)C(=O)N[C@H](C(=O)OC)C(C)C` [Compound 7, Methyl (S)-2-[(2S,3S)-2-((3S,4S)-3-amino-4-{(S)-3-methyl-2-[2-(3-trifluoromethoxy-phenyl)acetylamino]butyrylamino}-5-phenylpentanoylamino)-3-methyl-pentanoylamino]-3-methylbutyrate]: the negative-log IC50 (pIC50) (commonly the negative decadic logarithm of the IC50, by convention in mol/L) in assay [1] is 7.74; at recombinant human renin it was less than 4.52.
For the molecule `CC(C)CC(=O)N[C@@H](CC(C)C)C(=O)N[C@H](C(=O)N[C@@H](Cc1ccccc1)[C@@H](N)CC(=O)N[C@H](COc1ccc(F)cc1F)C(C)C)C(C)C` [Compound 44, N-[(S)-1-(2,4-Difluorophenoxymethyl)-2-methylpropyl]-(3S,4S)-3-amino-4-{(S)-3-methyl-2-[(S)-4-methyl-2-(3-methylbutyryl-amino)pentanoylamino]butyrylamino}-5-phenylpentanamide], the pIC50 in assay [1] is 7.41; at recombinant human renin it was less than 4.52.
As for `CCc1cccc(CC)c1NC(=O)C[C@H](N)[C@H](Cc1ccccc1)NC(=O)[C@@H](NC(=O)CCCc1ccccc1)C(C)C` [Compound 40, N-(2,6-Diethylphenyl)-(3S,4S)-3-amino-4-[(S)-3-methyl-2-(4-phenylbutyrylamino)butyrylamino]-5-phenylpentanamide], the pIC50 was 6.10 in assay [1] and less than 4.52 at recombinant human renin.
Turning to `CC(C)CCNC(=O)[C@H](C)NC(=O)C[C@H](N)[C@H](Cc1ccccc1)NC(=O)[C@@H](NC(=O)Cc1cccc(OC(F)(F)F)c1)C(C)C` [Compound 35, N-[(S)-1-(3-Methylbutylcarbamoyl)-ethyl]-(3S,4S)-3-amino-4-{(S)-3-methyl-2-[2-(3-trifluoromethoxyphenyl)acetylamino]-butyrylamino}-5-phenylpentanamide], the pIC50 in assay [1] is 6.72; at recombinant human renin, less than 4.52.
For the molecule `CC[C@H](C)[C@H](NC(=O)C[C@H](N)[C@H](Cc1ccccc1)NC(=O)[C@@H](NC(=O)Cc1cccc(OC(F)(F)F)c1)C(C)C)C(=O)N[C@H](C(=O)O)C(C)C` [Compound 32, (S)-2-[(2S,3S)-2-((3S,4S)-3-Amino-4-{(S)-3-methyl-2-[2-(3-trifluoromethoxyphenyl)-acetylamino]butyrylamino}-5-phenyl-pentanoylamino)-3-methylpentanoyl-amino]-3-methylbutyric acid], the pIC50 is 7.92 in assay [1] and less than 4.52 on recombinant human renin.
Take `CC[C@H](NC(=O)[C@@H](N)CC(C)C)C(=O)N[C@@H](Cc1ccccc1)[C@@H](N)CC(=O)N[C@H](C(=O)N[C@H](C(=O)OC)C(C)C)[C@@H](C)CC` [Compound 2, Methyl (S)-2-((2S,3S)-2-{(3S,4S)-3-amino-4-[(S)-2-((S)-2-amino-4-methylpentanoylamino)butyrylamino]-5-phenylpentanoylamino}-3-methylpentanoylamino)-3-methyl-butyrate] (H-L[Abu][X1]IV-OMe): the values for the negative-log IC50 (pIC50) (in assay [1]; at recombinant human renin) were 5.70 and less than 4.52, respectively.
For `COC(=O)[C@@H](NC(=O)[C@H](Cc1ccccc1)NC(=O)C[C@H](N)[C@H](Cc1ccccc1)NC(=O)[C@@H](NC(=O)[C@H](CC(C)C)NC(=O)CC(C)C)C(C)C)C(C)C` [Compound 15, Methyl (S)-2-[(S)-2-((3S,4S)-3-amino-4-{(S)-3-methyl-2-[(S)-4-methyl-2-(3-methyl-butyrylamino)pentanoylamino]butyryl-amino)-5-phenylpentanoylamino)-3-phenyl-propionylamino]-3-methylbutyrate] (Isovaleryl-LV[X1]FV-OMe), the negative logarithm of the IC50 (pIC50) is 8.24 in assay [1] and less than 4.52 at recombinant human renin.
Regarding `CC[C@H](C)[C@H](NC(=O)C[C@H](N)[C@H](Cc1ccccc1)NC(=O)[C@@H](NC(=O)Cc1cccc(NS(C)(=O)=O)c1)C(C)C)C(=O)N[C@H](C(=O)OC)C(C)C` [Compound 9, Methyl (S)-2-[(2S,3S)-2-((3S,4S)-3-amino-4-{(S)-2-[2-(3-methanesulfonylamino-phenyl)-acetylamino]-3-methylbutyrylamino}-5-phenylpentanoylamino)-3-methyl-pentanoylamino]-3-methylbutyrate], the negative-log IC50 (pIC50) in assay [1] is 7.09; at recombinant human renin, less than 4.52.
For `CC[C@H](C)[C@H](NC(=O)C[C@H](N)[C@H](Cc1ccccc1)NC(=O)[C@@H](NC(=O)COc1cccc2ccccc12)C(C)C)C(=O)N[C@H](C(=O)OC)C(C)C` [Compound 8, Methyl (S)-2-[(2S,3S)-2-((3S,4S)-3-amino-4-{(S)-3-methyl-2-[2-(naphthalen-1-yloxy)-acetylamino]butyrylamino}-5-phenyl-pentanoylamino)-3-methylpentanoyl-amino]-3-methylbutyrate], in that order: 6.70 and less than 4.52.
As to `CC[C@H](C)[C@H](NC(=O)C[C@H](N)[C@H](Cc1ccccc1)NC(=O)[C@@H](NC(=O)[C@H](CC(C)C)NC(=O)CC(C)C)C(C)C)C(=O)NCC1CC1` [Compound 30, N-[(1S,2S)-1-(Cyclopropylmethyl-carbamoyl)-2-methylbutyl]-(S)-3-(S)-amino-4-{(S)-3-methyl-2-[(S)-4-methyl-2-(3-methylbutyrylamino)-pentanoylamino]butyrylamino}-5-phenylpentanamide], the negative logarithm of the IC50 (pIC50) is 6.40 in assay [1] and less than 4.52 on recombinant human renin.
With `CCc1cccc(CC)c1NC(=O)C[C@H](N)[C@H](Cc1ccccc1)NC(=O)[C@@H](NC(=O)[C@H](CC(C)C)NC(=O)CC(C)C)C(C)C` [Compound 38, N-(2,6-Diethylphenyl)-(3S,4S)-3-amino-4-{(S)-3-methyl-2-[(S)-4-methyl-2-(3-methyl-butyrylamino)pentanoylamino]butyryl-amino}-5-phenylpentanamide], the negative-log IC50 (pIC50) is 6.64 in assay [1] and less than 4.52 at recombinant human renin.
On to `CC[C@H](C)[C@H](NC(=O)C[C@H](N)[C@H](Cc1ccccc1)NC(=O)[C@@H](NC(=O)[C@H](CC(C)C)NC(=O)CC(C)C)C(C)C)C(=O)NCc1ccccc1` [Compound 29, N-((1S,2S)-1-Benzylcarbamoyl-2-methylbutyl)-(S)-3-amino-4-{(S)-(S)-3-methyl-2-[(S)-4-methyl-2-(3-methylbutyrylamino)-pentanoylamino]butyrylamino}-5-phenylpentanamide], for which the pIC50 is 6.74 in assay [1] and less than 4.52 on recombinant human renin.
For `CC(C)CC(=O)N[C@@H](CC(C)C)C(=O)N[C@H](C(=O)N[C@@H](Cc1ccccc1)[C@@H](N)CC(=O)N[C@H](COc1cccnc1)C(C)C)C(C)C` [Compound 43, N-[(S)-2-Methyl-1-(pyridin-3-yloxymethyl)propyl]-(3S,4S)-3-amino-4-{(S)-3-methyl-2-[(S)-4-methyl-2-(3-methylbutyrylamino)-pentanoylamino]butyrylamino}-5-phenylpentanamide], in that order: 6.62 and less than 4.52.
Take `CCOC(=O)C1(NC(=O)[C@@H](NC(=O)C[C@H](N)[C@H](Cc2ccccc2)NC(=O)[C@@H](NC(=O)[C@H](CC(C)C)NC(=O)CC(C)C)C(C)C)[C@@H](C)CC)CC1` [Compound 12, Ethyl 1-[(2S,3S)-2-((S)-3-(S)-amino-4-((S)-3-methyl-2-[(S)-4-methyl-2-(3-methyl-butyrylamino)pentanoylamino]butyryl-amino}-5-phenylpentanoylamino)-3-methyl-pentanoylamino] cyclopropanecarboxylate] (Isovaleryl-LV[X1]I[Ac3c]-OEt): the pIC50 is 6.96 in assay [1] and less than 4.52 on recombinant human renin.
